Reference: US20250194596A1 (priority 2023, published 2025)
Where a name gives a salt, the structure may show the parent alone. Read-outs that look alike come from different tables or passages of the source.

Columns and labels:
[1] = tested on: CLas; type: in vivo, Candidatus Liberibacter asianticum
[2] = tested on: CLas; type: in vivo, Candidatus Liberibacter asianticum; conditions: injection into the tree trunks for one week
[3] = type: physicochemical; conditions: 10 mg/mL in water
[4] = on human beings and animals; cited from earlier work

## CC1(C)S[C@@H]2[C@H](NC(=O)[C@H](N)c3ccccc3)C(=O)N2[C@H]1C(=O)O [ampicillin, reference compound]
[1]; 12 mg/mL, mesophyll injection, 3 d
  CLas content reduced: more than 80%

## O=C(/C=C/c1ccc(O)c(O)c1)O[C@@H]1C[C@](O)(C(=O)O)C[C@@H](O)[C@H]1O [chlorogenic acid]
[1]; 0.5 mg/mL chlorogenic acid, mesophyll injection, 3 d
  CLas content reduced: more than 60%
[1]; 10 mg/mL, mesophyll injection, 3 d
  inhibitory effect on CLas: equivalent to that of 5 mg/mL
[1]; concentrations below 0.5 mg/mL, mesophyll injection, 3 d
  antibacterial effect on CLas: not obvious
[1]; in vivo
  concentration achieving a significant inhibitory effect on CLas: not less than 5 mg/mL
[1]; injection into the mesophyll for 3 days
  reduction of CLas content: about 60%
[1]; mesophyll injection of HLB-infected leaves, CLas content after 3 d
  minimum inhibitory concentration (MIC) of chlorogenic acid for CLas: 500 µg/mL
[2]
  reduction of CLas content: about 60%
[3]
  appearance of solution: turbid

## CN(C)[C@@H]1C(O)=C(C(N)=O)C(=O)[C@@]2(O)C(O)=C3C(=O)c4c(O)cccc4[C@@](C)(O)[C@H]3[C@H](O)[C@@H]12 [oxytetracycline hydrochloride, reference compound]
[1]; 20 mg/mL, mesophyll injection, 3 d
  reduction of CLas content: about 20%

## rhamnolipid
[4]
  toxic or side effects: no toxic or side effects
